For assay [1], the system named is putrescine N-methyltransferase ("PMT") / highly purified tobacco protein. In words: Substrate specificity test: analogs substituted for putrescine in the standard PMT assay. Type of assay: biochemical, Nicotiana tabacum L. var. Burley 21. Conditions: for radioactive product formed when substituted for putrescine: standard PMT assay, 30° C., 30 minutes. The protocol:
(§1) The reaction was started by addition of the enzyme sample, and it was carried out at 30° C. for 30 minutes. The reaction was stopped by addition of 0.5 ml of 10% (w/v) NaOH saturated with NaCl.
(§2) The radioactive product, N-[^14 C-methyl]putrescine, was separated from the substrate by solvent extraction into chloroform. After vortexing the stopped reaction mixture with 1 ml of chloroform for 90 seconds, the organic and aqueous phases were separated by centrifugation at 1600×gav for 5 minutes. A 0.5 ml aliquot of the organic phase was then assayed. The 0.5 ml aliquot of the organic phase was added to 9.5 ml of liquid scintillation cocktail (Beckman Instruments, Columbia, Md.) and radioactivity was measured by standard procedures with a liquid scintillation counter.
(§3) One unit of apparent PMT activity is defined as one nanomole of product formed per 30 min., at 30° C.
(§4) Negative controls were included with all PMT assays. Negative controls consisted of reaction mixtures minus enzyme, or reaction stopped with NaOH at time zero.
Substrate specificity tests were carried out with the highly purified tobacco protein of the present invention. 1,3-Diaminopropane and 1,5-diaminopentane (chemical analogs of putrescine) phosphatidylethanolamine (a methyl group acceptor), and N-methylputrescine(the normal product of PMT), were compared with putrescine (1,4-diaminobutane) for ability to serve as an apparent substrate for PMT.

In assay [2] the test system is putrescine N-methyltransferase ("PMT") / subject tobacco protein. In words: Apparent Km determination in the apparent PMT activity assay. The settings on record: partially purified tobacco protein; S-adenosylmethionine in excess. Type of assay: biochemical, Nicotiana tabacum L. var. Burley 21. The method, then: as §1, §2, §3, §4

`NCCCCCN` [1,5-diaminopentane]: the “radioactive product formed when substituted for putrescine” value in assay [1] is listed as “no detectable amount of radioactive product was formed”.
Still for that read-out and setting: the same measure for phosphatidylethanolamine: “no detectable amount of radioactive product was formed”.
What is called Km is the concentration of substrate that gives half-maximal velocity. For `NCCCCN` [putrescine, 1,4-diaminobutane], the Michaelis-Menten constant (Km) in assay [2] is around 400 µM.
As for `CNCCCCN` [N-methylputrescine], the “radioactive product formation relative to that observed with putrescine” value in assay [1] (substituted for putrescine in the PMT assay) is on record as “less than 6%”.
For `NCCCN` [1,3-diaminopropane, 1,3-Diaminopropane], the “radioactive product formed when substituted for putrescine” value in assay [1] is listed as “no detectable amount of radioactive product was formed”.

These data come from patent US5668295A, “Protein involved in nicotine synthesis, DNA encoding, and use of sense and antisense DNAs corresponding thereto to affect nicotine content in transgenic tobacco cells and plants” (Philip Morris Incorporated, priority 1995, dated 1997).
